Consider 10 compounds from patent publication US20070248543A1 (ZGene A/S, priority 2004, published 2007).

As usually defined, the Km is the substrate concentration at which the rate is half of its maximum. By IC50 is commonly meant the midpoint of a concentration-inhibition curve.

Several values for one entry are separate records, joined by “and”; a condition that tells them apart may be missing. Equal entries are not always repeated. Where two headings read alike, the source gives them in different places.

Experiment [1] concerns deoxyribonucleoside kinase expressed in E. coli TOP10 extracts. Kind of experiment: Deoxyribonucleoside kinase activity in extracts of transformed TOP10 cells. As to conditions: approximate. In kind it is biochemical.
Experiment [2] has as its system deoxyribonucleoside kinases in MCF-7 cell crude extract. As to the kind of experiment: Deoxyribonucleoside kinase activity in crude extracts of MCF-7 cells. The experiment is classed as biochemical, human. To be noted: substrate at 200 μM; triplicates, mean with standard deviation. The method, then: Cells were submitted to brief sonication in extraction buffer (50 mM Tris/HCl pH 7.5, 1 mM DTT, 10% (v/v) glycerol, 1% (v/v) Triton X-100, protease inhibitor cocktail (CompleteTM from Roche Diagnostics). […] App. 20 μg extracts were used in the assays. The assay was done as described by Munch-Petersen et al. [Munch-Petersen, B., Knecht, W., Lenz, […]: Functional expression of a multisubstrate deoxyribonucleoside kinase from Drosophila melanogaster and its C-terminal deletion mutants; J.Biol.Chem. 2000 275 6673-6679].

The test system of experiment [3] is deoxyribonucleoside kinases in DT 40 chicken cell line crude extract. As to the kind of experiment: Deoxyribonucleoside kinase activity in crude extracts of DT 40 cells (DE-81 filter paper assay). As to conditions: substrate at 200 μM; triplicates, mean with standard deviation. In kind it is biochemical. The procedure:
Deoxribonucleoside kinase activities in DT 40 chicken cell line DT 40 cells were grown in RPMI-1640 medium (Gibco) supplemented with 10% foetal calf serum, 1% chicken serum, 2 mM L-glutamine, 10 uM mercaptoethanol and penicillin-streptomycin mixture […], harvested and stored at −80° C. until activity testing. Cells were submitted to brief sonication in extraction buffer (50 mM Tris/HCl pH 7.5, 1 mM DTT, 10% (v/v) glycerol, 1% (v/v) Triton X-100, protease inhibitor cocktail (Complete™ from Roche Diagnostics). Deoxyribonucleoside kinase activities were determined in the DT 40 extracts by initial velocity measurements based on four time samples by the DE-81 filter paper assay using tritium-labelled nucleoside substrates. App. 20 μg extracts were used in the assays. The assay was done as described by Munch-Petersen et al. [Munch-Petersen, B., Knecht, W., Lenz, C., Sondergaard, L. & Piskur, J: Functional expression of a multisubstrate deoxyribonucleoside kinase from Drosophila melanogaster and its C-terminal deletion mutants; J.Biol.Chem. 2000 275 6673-6679].

Another experiment concerns GgdCK1. As to the kind of experiment: Steady state kinetics of purified recombinant GgdCK1. In kind it is biochemical, Gallus gallus. The method, then: (§1) Purification of the Recombinant Enzymes. Transformants (KY895 cells transfected with PZG469 (GgcCK1) and PZG657 (GgdCK2)) were grown in LB medium containing […] ampicillin to A600 0.5-0.6, and the expression was induced with […] IPTG for 4 h at 25° C. […] The cells were homogenized using a French Press, subjected to centrifugation at 12,000×g for 30 minutes (4° C.), filtered through a […] Whatman glass microfiber filter and a […] cellulose acetate filter, and loaded onto the column (2 ml column packed with Glutathione-Sepharose 4 FF, Pharmacia) equilibrated in binding buffer A. Unbound material was removed by washing with 10 column volumes of buffer A. Subsequently the column was washed with 5 ml buffer A containing 10 mM ATP/MgCl2, and incubated for 1 h at room temperature and then 30 min at 4° C. to remove strongly bound contaminating proteins. Afterwards the column was washed again with 10 ml of buffer A and 2 ml of thrombin (50 U/ml) solution were applied on the column. The column was gently shaken overnight at 4° C. to cleave the recombinant protein from the GST-tag. Pure protein was eluted from the column in buffer A. Uncleaved fusion protein was eluted with buffer B (50 mM Tris-HCl pH 8, 10% glycerol, 0,1 % Triton X-100, 10 mM gluthatione reduced). Before storage of enzyme-containing fractions at −80° C., glycerol, Triton X-100, and dithiothreitol were added to 8%, 1% and 1 mM, respectively. Proteins were analyzed on Agilent 2100 Bioanalyzer using Protein Assay Chips.
Enzyme Assays. Bacteria or cell lines were grown as described, harvested and stored at −80° C. until activity testing. Cells were submitted to brief sonication in extraction buffer (50 mM Tris/HCl pH 7.5, 1 mM DTT, 10% (v/v) glycerol, 1% (v/v) Triton X-100, protease inhibitor cocktail Complete™ from Roche Diagnostics). Deoxyribonucleoside kinase activities were determined by initial velocity measurements based on four time samples by the DE-81 filter paper assay using tritium-labelled nucleoside substrates. App. 20 μg extracts were used in the assays. […] One unit of deoxyribonucleoside kinase activity is defined as 1 μmol of the corresponding monophosphate formed per minute. The obtained data were fitted to the Michaelis-Menten equation v=Vmax·[S]/(Km+[S]).

The next experiment deals with HsdCK (Homo sapiens, UniProt P27707). As to conditions: cited from earlier work; for Kcat / Vmax: literature data.
Sequence of HsdCK (P27707 whole entry): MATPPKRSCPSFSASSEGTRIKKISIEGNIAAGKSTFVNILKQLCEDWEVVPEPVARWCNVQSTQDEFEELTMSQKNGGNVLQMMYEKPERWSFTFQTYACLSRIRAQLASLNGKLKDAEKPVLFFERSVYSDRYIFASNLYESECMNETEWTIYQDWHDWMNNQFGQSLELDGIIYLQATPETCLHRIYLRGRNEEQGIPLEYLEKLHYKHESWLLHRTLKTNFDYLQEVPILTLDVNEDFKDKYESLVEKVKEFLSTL
For a further experiment, the target named is T1, human dGK (Homo sapiens, UniProt Q16854).
T1 sequence (Q16854 40-277): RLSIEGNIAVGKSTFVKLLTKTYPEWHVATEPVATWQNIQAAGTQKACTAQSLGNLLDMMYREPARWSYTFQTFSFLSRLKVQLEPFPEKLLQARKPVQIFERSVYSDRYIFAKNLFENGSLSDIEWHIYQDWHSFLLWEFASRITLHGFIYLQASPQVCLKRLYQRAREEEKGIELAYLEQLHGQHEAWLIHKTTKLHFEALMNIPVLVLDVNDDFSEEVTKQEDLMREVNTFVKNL
To be noted: Zhu et al. 1998; cited from earlier work.

Another experiment addresses GgdCK2 (Gallus gallus, UniProt Q5ZJM7). As to the kind of experiment: Steady state kinetics of purified recombinant GgdCK2. The procedure:
as §1
Enzyme Assays. Bacteria or cell lines were grown as described, harvested and stored at −80° C. until activity testing. Cells were submitted to brief sonication in extraction buffer (50 mM Tris/HCl pH 7.5, 1 mM DTT, 10% (v/v) glycerol, 1% (v/v) Triton X-100, protease inhibitor cocktail Complete™ from Roche Diagnostics). Deoxyribonucleoside kinase activities were determined by initial velocity measurements based on four time samples by the DE-81 filter paper assay using tritium-labelled nucleoside substrates. App. 20 μg extracts were used in the assays. […]

The subject of experiment [4] is MCF-7 (breast cancer cell line). Kind of experiment: Cell proliferation assay (XTT cytotoxicity) of retrovirus-transduced MCF-7 cells. To be noted: Homo sapiens, MCF7, read-out: IC50 value of ara-G, MCF-7 parental cell line. The experiment is classed as cell-based. The procedure:
HE 293 T packaging cells (ATCC CRL-11268) were cultured at 37° C. in OPTIMEM 1 medium (Life Technologies, Inc.) The constructed pLCXSN plasmid vector was transfected into the packaging cells using LipofectAMINE PLUS (Life Technologies, Inc.) according to the protocol provided by the supplier. The medium from the transfected cells was collected 48 hours after transfection, filtered through a 0.45 µm filter, pelleted by ultracentrifugation (50.000×g, 90 minutes at 4° C.) and dissolved in DMEM (Cambrex, Blo Whittaker Cat. No. 12-741-F).
The virus containing medium was subsequently used to transduce the cancer cell lines with a MOI of 5. […]
Cells were plated at densities range of 1.500-3.500 cells/well in 96-well plates coated with Poly-L-lysine (Sigma Cat. No. P6282) Gemcitabine (obtained from Orifarm A/S—DK) was added after 24 hours of incubation at 37° C., 5% CO2, and the medium containing the nucleoside analog. […] The IC50 value of the investigated drug/compound was calculated as the mean of these experiments using SigmaPlot® (SPSS Science, Dyrberg Trading—DK).
The sensitivity of the untransduced cells, and of the cells transduced with either the retroviral vector alone ore the vector containing chicken kinases for Gemcitabine and Ara-G was determined.
(Tetrazolium assays rely on reduction of a dye to a coloured formazan, in cell work by metabolically active cells.)

Where [5] appears, read: data from Bohman 1988 and Habteyesus 1991, read-out: Km.

Sequence of GgdCK2 (Q5ZJM7 whole entry): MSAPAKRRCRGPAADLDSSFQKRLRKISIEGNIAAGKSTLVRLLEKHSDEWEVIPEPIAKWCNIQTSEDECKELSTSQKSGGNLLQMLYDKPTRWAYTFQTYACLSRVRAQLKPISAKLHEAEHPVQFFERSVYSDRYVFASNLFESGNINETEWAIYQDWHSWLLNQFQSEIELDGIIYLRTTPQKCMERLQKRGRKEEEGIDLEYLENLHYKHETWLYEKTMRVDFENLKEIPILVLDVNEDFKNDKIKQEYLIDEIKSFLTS

In experiment [1], “GgdCK1: Gallus gallus deoxycytidine kinase 1, 257 amino acid residues, SEQ ID No. 2” registered a dCyd phosphorylation efficiency of approximately 8 mU.

`Nc1ncnc2c1ncn2[C@H]1C[C@H](O)[C@@H](CO)O1` [dAdo, deoxyadenosine]: in experiment [2], the “Deoxyribonucleoside kinase activity in crude extract of MCF-7 cells” value was found to be 0.05 ± 0.00 mU/mg. For the same compound, in experiment [3], the “Deoxyribonucleoside kinase activity in crude extract of DT 40 cells” value turned out to be 0.1 ± 0.01 mU/mg. Also, the Michaelis-Menten constant (Km) with GgdCK1 was 79 µM and 82 µM.

As for `Nc1ccn([C@@H]2O[C@H](CO)[C@@H](O)C2(F)F)c(=O)n1` [Gemcitabine, 2′,2′-difluorodeoxycytidine], the results for the Km at HsdCK (setting [5]) and with GgdCK1 were 60 µM and 6.3 ± 0.5 µM, respectively. The figures for the Kcat at HsdCK and in the experiment with GgdCK1 were 0.05 s⁻¹ and 1.37 s⁻¹, respectively. Further, the Vmax on HsdCK was 100 nm/min/mg; in the experiment with GgdCK1, 2712 ± 357 nm/min/mg.

On to `Nc1ccn([C@H]2C[C@H](O)[C@@H](CO)O2)c(=O)n1` [dCyd, deoxycytidine], for which the “Deoxyribonucleoside kinase activity in crude extract of MCF-7 cells” value in experiment [2] was 0.01 ± 0.00 mU/mg. In experiment [3], the “Deoxyribonucleoside kinase activity in crude extract of DT 40 cells” value was found to be 0.09 ± 0.01 mU/mg. Further, in the experiment on GgdCK1, the Kcat turned out to be 0.30 s⁻¹, the Km was 4.8 µM and the Vmax was determined as 589 ± 34 nm/min/mg.

As to `Nc1nc2c(ncn2[C@H]2C[C@H](O)[C@@H](CO)O2)c(=O)[nH]1` [dGuo, deoxyguanosine], the values for the Km at human dGK, at HsdCK (setting [5]) and in the experiment with GgdCK1 were 7.6 µM, 100 µM and 61.8 ± 11.1 µM, respectively. The values for the Kcat on HsdCK and with GgdCK1 were 0.33 s⁻¹ and 0.20 s⁻¹, respectively. Further, the Vmax is 600 nm/min/mg on HsdCK and 394 ± 37 nm/min/mg with GgdCK1. Also, in experiment [2], the “Deoxyribonucleoside kinase activity in crude extract of MCF-7 cells” value is 0.01 ± 0.00 mU/mg. Also, in experiment [3], the “Deoxyribonucleoside kinase activity in crude extract of DT 40 cells” value worked out at 0.09 ± 0.00 mU/mg.

Consider `Nc1ccn([C@@H]2O[C@H](CO)[C@@H](O)[C@@H]2O)c(=O)n1` [araC, cytidine-arabinoside], for which, in the experiment on GgdCK1, the Kcat was 0.44 s⁻¹, the Michaelis constant (Km) was 15.3 ± 2.3 µM and the Vmax is given as 878 ± 33 nm/min/mg. Also, on GgdCK2, the Kcat was 0.34 s⁻¹, the Km was 1470 ± 664 µM and the Vmax was 649 ± 267 nm/min/mg.

Turning to `Nc1nc2c(ncn2[C@@H]2O[C@H](CO)[C@@H](O)[C@@H]2O)c(=O)[nH]1` [ara-G, 9-beta-D-arabinofuranosylguanine], at human dGK, the Km was 8 µM and the “relative phosphorylation higher by recombinant human dGK than by recombinant human dCK” value was 76 times. Besides, the IC50 in experiment [4] stood at 1580 ± 158 µM.

As to `Nc1nc(F)nc2c1ncn2[C@@H]1O[C@H](CO)[C@@H](O)[C@@H]1O` [F-araA, 2-Fluoroadenine 9-beta-D-Arabinofuranoside], the Km on HsdCK (data from Bohman 1988 and Habteyesus 1991) is 200 µM.

On to `Nc1nc(Cl)nc2c1ncn2[C@H]1C[C@H](O)[C@@H](CO)O1` [CdA, 2-chloro-2′-deoxyadenosine], for which, in the experiment with GgdCK1, the Kcat was 0.64 s⁻¹, the Michaelis-Menten constant (Km) amounted to 3.3 ± 0.4 µM and the Vmax came to 1273 ± 38 nm/min/mg.

As to `Cc1cn([C@H]2C[C@H](O)[C@@H](CO)O2)c(=O)[nH]c1=O` [dThd, thymidine], in experiment [2], the “Deoxyribonucleoside kinase activity in crude extract of MCF-7 cells” value is 0.07 ± 0.00 mU/mg. Also, the “Deoxyribonucleoside kinase activity in crude extract of DT 40 cells” value in experiment [3] is listed as 0.1 ± 0.03 mU/mg.
